Assay results from article PMC3914656 (Journal of cancer science & therapy, 2013).
Counter-ions that a name gives are not always drawn.

Legend:
[1] = Stability in perfusion solution; assay type: physicochemical; settings: Phosphate Buffer Saline pH 7.4 with phenol red, room temperature, 6 hrs, RP-HPLC
p-gp = experiment: qRT-PCR gene expression of p-gp in treated Caco-2 cells; assay type: cell-based; settings: for expression of p-gp (qRT-PCR): Caco-2 cells, 24-hrs treatment, actin as control
[2] = Rat in-situ single-pass colon perfusion, effective permeability coefficient; settings: N-Nitroso N-methyl urea induced colon cancer, Figure 3

| stability in perfusion samples [1] | permeability coefficient in cancerous colon in comparison to normal colon [2] | SMILES | expression of p-gp (qRT-PCR) (p-gp) | decrease in the expression of p-glycoprotein (P-gp) (p-gp; qRT-PCR and Western blot, curcumin treated colon cancer cells) |
| --- | --- | --- | --- | --- |
| stable | decreased | CCc1c2c(nc3ccc(OC(=O)N4CCC(N5CCCCC5)CC4)cc13)-c1cc3c(c(=O)n1C2)COC(=O)[C@]3(O)CC [Irinotecan, Irinotecan Hydrochloride] | increased | – |
| – | – | COc1cc(/C=C/C(=O)CC(=O)/C=C/c2ccc(O)c(OC)c2)ccc1O [curcumin] | significant inhibition | about 15 fold |
| stable | – | CC(C)NCC(O)COc1cccc2ccccc12 (stereo not drawn) [propranolol] | – | – |
